In patent US9463252B2, “Auristatin drug linker conjugates” (priority 2008, dated 2016):

Legend:
L540cy = experiment: Cytotoxicity of Auristatin-Peptide-cAC10 conjugates on CD30+ cells; assay type: cell-based, human; settings: Table 11, ~4 drugs per antibody
Protocol: (§1) Following the procedure described in Example 57, Auristatin-Dipeptide-cAC10 antibody conjugates were evaluated on CD30+ positive cell lines, Karpas 299, L428 and L540cy. In addition, a control conjugate, cAC10-vc-PABC-MMAF, was used. […] The conjugates contain approximately 4 drugs per antibody.
(§2) Following the procedure described as Examples 57 and 58, the activities of Auristatin-Peptide-cAC10 conjugates were evaluated on CD30^+ cells, such as Karpas 299, L428, and L540cy. The activities of Auristatin-Peptide-hBU12 conjugates were evaluated on CD19^+ cells such as Ramos, SUDHL-4, and ARH-77. The activities of Auristatin-Peptide-anti-LIV-1 conjugates were evaluated on LIV-1 positive cell lines MCF-7 and SKOV-3. The activities of Auristatin-Peptide-BR96 conjugates were evaluated on Le^y positive cells H3396, RCA, and L2987. All conjugates contain approximately 4 drugs per antibody.

Karpas 299 = experiment: as above; assay type: cell-based, human; settings: Table 11, ~4 drugs per antibody
Protocol: as §1, §2

MCF-7 = experiment: Cytotoxicity of Auristatin-Peptide-anti-LIV-1 conjugates on LIV-1 positive cells; assay type: cell-based; settings: Table 11, ~4 drugs per antibody
Protocol: as §2

SKOV-3 = experiment: as above; assay type: cell-based; settings: Table 11, ~4 drugs per antibody
Protocol: as §2

Caki-1 = experiment: Cytotoxicity of Auristatin-Peptide-h1F6 conjugates, resazurin assay; assay type: cell-based
Description: (§3) The conjugates contain approximately 4 drugs per antibody.

L428 [1] = experiment: as above; assay type: cell-based
Description: as §3

RCA = experiment: Cytotoxicity of Auristatin-Peptide-BR96 conjugates on Le^y positive cells; assay type: cell-based; settings: Table 11, ~4 drugs per antibody
Protocol: as §2

L2987 = experiment: as above; assay type: cell-based; settings: Table 11, ~4 drugs per antibody
Protocol: as §2

H3396 = experiment: as above; assay type: cell-based; settings: Table 11, ~4 drugs per antibody
Protocol: as §2

ARH-77 = experiment: Cytotoxicity of Auristatin-Peptide-hBU12 conjugates on CD19+ cells; assay type: cell-based; settings: Table 11, ~4 drugs per antibody
Protocol: as §2

SUDHL-4 = experiment: as above; assay type: cell-based; settings: Table 11, ~4 drugs per antibody
Protocol: as §2

Ramos = experiment: as above; assay type: cell-based; settings: Table 11, ~4 drugs per antibody
Protocol: as §2

L428 [2] = experiment: Cytotoxicity of Auristatin-Peptide-cAC10 conjugates on CD30+ cells; assay type: cell-based; settings: Table 11, ~4 drugs per antibody
Protocol: as §1, §2

HCT-116 (CD70−) = experiment: Cytotoxicity of Auristatin-Peptide-h1F6 conjugates, CD70- control cell line; assay type: cell-based
Description: as §3

Caki-2 = experiment: Cytotoxicity of Auristatin-Peptide-h1F6 conjugates, resazurin assay; assay type: cell-based
Protocol: as §3
Following the procedure described as Examples 57 and 58, Auristatin-Peptide-h1F6 conjugates were evaluated on CD70^+ cell, such as 786-O, Caki-1, Caki-2, and L428. Conjugates contain approximately 4 drugs per antibody.

[3] = test system: CD30+, CD19+, LIV-1 positive and Le^y positive cells; experiment: In vitro activity of conjugates with cAC10, hBU12, anti-LIV-1 and BR96, overall statements; assay type: cell-based; settings: conjugates with cAC10, hBU12, Anti-LIV-1, BR96; Table 11
Protocol: as §2

786-O = experiment: Cytotoxicity of Auristatin-Peptide-h1F6 conjugates, resazurin assay; assay type: cell-based, human
Description: as §3

[4] = test system: L540cy Hodgkin's lymphoma subcutaneous model; experiment: In vivo efficacy of cAC10 conjugates in lymphoma xenograft model; parameters: species or system mouse; settings: FIG. 17, q4d×3 at 1 mg/kg, SCID mice
Protocol: The efficacy of selected Auristatin-Dipeptide-cAC10 conjugates having Stretcher units with aryl or alkyl maleimides were evaluated in L540cy Hodgkin's lymphoma subcutaneous model. Auristatin-Dipeptide-cAC10 conjugates with average of 4 drug moieties per antibody were used. L540cy cells were implanted subcutaneously into immunodeficient SCID mice (5×10^6 cells per mouse). […] Treatment was initiated when average size of tumors reached 100 mm^3. The treatment schedule was q4d×3 at 1 mg/kg.

[5] = test system: DoHH-2 follicular B-cell lymphoma subcutaneous model; experiment: In vivo efficacy of hBU12 conjugates in lymphoma xenograft model; parameters: species or system mouse; settings: FIG. 16, q4d×4 at 3 mg/kg, SCID mice
Protocol: The efficacies of Auristatin-Dipeptide hBU12 conjugates with the aryl and alkyl-maleimide Stretcher units were evaluated in a DoHH-2 follicular B-cell lymphoma subcutaneous model. Auristatin-Dipeptide-hBU12 conjugates with average of 4 drug moieties per antibody were used. DoHH-2 cells were implanted subcutaneously into immunodeficient SCID mice (5×10^6 cells per mouse). […] Treatment was initiated when average size of tumors reached 100 mm^3; the treatment schedule was q4d×4 at 3 mg/kg.

[6] = test system: 786-O (renal cell) xenografts; settings: mouse, ip
Protocol: The efficacy of AF-Dipeptide-h1F6 conjugates were evaluated in 786-O (renal cell) xenografts. AF-Dipeptide-h1F6 conjugates with an average of 4 drug moieties per antibody were used. 786-O cells were implanted subcutaneously into immunodeficient mice (5×10^6 cells per mouse). Tumor volumes are calculated using the formula (0.5×L×W^2) where L and W are the longer and shorter of two bidirectional measurements.
In a second study, the efficacies of additional Auristatin-Dipeptide-h1F6 conjugates were evaluated in 786-O (renal cell) xenografts. Auristatin-Dipeptide-h1F6 conjugates with an average of 4 drug moieties per antibody were used. 786-O cells were implanted subcutaneously into immunodeficient mice (5×10^6 cells per mouse). Tumor volumes are calculated using the formula (0.5×L×W^2), where L and W are the longer and shorter of two bidirectional measurements.

[7] = test system: CD70+ positive cell lines; settings: h1F6 conjugates, ~4 drugs/Ab
Protocol: Cytotoxicity assays are usually carried out for 96 hours after addition of test compounds. Fifty μl of resazurin dye may be added to each well during the last 4 to 6 hours of the incubation to assess viable cells at the end of culture. Dye reduction can be determined by fluorescence spectrometry using the excitation and emission wavelengths of 535 nm and 590 nm, respectively. For analysis, the extent of resazurin reduction by the treated cells can be compared to that of the untreated control cells.

U251 = experiment: Cytotoxicity of Auristatin-Peptide-h1F6 conjugates, resazurin assay; assay type: cell-based; settings: Table 4, ~4 drugs/Ab
Description: as §3

[8] = Table 5, h1F6 conjugates, ~4 drugs/Ab
[9] = Table 10, h1F6-Drug(4) conjugates, aryl or alkyl maleimides
[10] = Table 4, h1F6 conjugates, ~4 drugs/Ab

Substance | IC50 L540cy (L540cy) | IC50 Karpas 299 (Karpas 299) | IC50 MCF-7 (MCF-7) | IC50 SKOV-3 (SKOV-3) | IC50 Caki-1 (Caki-1; [8]) | IC50 Caki-1 (Caki-1; [9]) | IC50 L428 (L428 [1]; [8]) | IC50 L428 (L428 [1]; [9]) | IC50 RCA (RCA) | IC50 L2987 (L2987) | IC50 H3396 (H3396) | IC50 ARH-77 (ARH-77) | IC50 SUDHL-4 (SUDHL-4) | IC50 Ramos (Ramos) | IC50 L428 (L428 [2]) | IC50 HCT-116 (CD70−) (HCT-116 (CD70−); Table 5, ~4 drugs/Ab) | IC50 Caki-2 (Caki-2; [8]) | IC50 Caki-2 (Caki-2; [9]) | IC50 786-O (786-O; [8]) | IC50 786-O (786-O; [9]) | other results
AW-Methionine-(D)Lysine-diaminoethane-propionyl maleimide [AW-Met-(D)Lys] | 0.017 µg/mL | 0.011 µg/mL | >10,000 ng/mL | >10,000 ng/mL | 22 ng/mL | 19 ng/mL | >1000 ng/mL | >1000 ng/mL | 5.217 µg/mL | 0.422 µg/mL | 0.146 µg/mL | >10,000 ng/mL | >10,000 ng/mL | >10,000 ng/mL | ~10,000 ng/mL | >1 µg/mL | 0.037 µg/mL | 0.018 µg/mL | 0.02 µg/mL | 0.017 µg/mL | in vitro potency (in words) [3]: less active
AM-Asparagine-(D)Lysine-diaminoethane-propionyl maleimide [AM-Asn-(D)Lys] | 0.031 µg/mL | 0.011 µg/mL | 24 ng/mL | 7600 ng/mL | 20 ng/mL | 16 ng/mL | 26 ng/mL | 29 ng/mL | 8.362 µg/mL | 0.506 µg/mL | 0.037 µg/mL | 49 ng/mL | >10,000 ng/mL | 1 ng/mL | 0.6 ng/mL | >1 µg/mL | 0.047 µg/mL | 0.026 µg/mL | 0.02 µg/mL | 0.018 µg/mL | in vivo efficacy, tumor volume (in words) [4]: more potent than corresponding AW-Met-(D)Lys conjugates; in vivo efficacy, tumor volume (in words) [5]: more potent than corresponding AW-Met-(D)Lys conjugates
AF-Proline-(D)Lysine-diaminoethane-propionyl maleimide [AF-Pro-(D)Lys] |  |  |  |  |  |  |  |  |  |  |  |  |  |  |  |  |  |  |  |  | in vivo efficacy, tumor volume (in words) [6]: inactive; in vitro activity on CD70+ cells (in words) [7]: largely inactive; IC50 U251 (U251): 5.012 µg/mL; IC50 Caki-1 (Caki-1; [10]): >10,000 ng/mL; IC50 L428 (L428 [1]; [10]): >10,000 ng/mL; IC50 HCT-116 (CD70−) (HCT-116 (CD70−); Table 4, ~4 drugs/Ab): >1 µg/mL
